Source: the supplement of paper PMC10307832

Legend:
Assay in all cases: relative viability (nuclei count vs DMSO), 5 days (fraction); higher = more cells survive
Daporinad + Vorinostat = compound: O=C(/C=C/c1cccnc1)NCCCCC1CCN(C(=O)c2ccccc2)CC1 [Daporinad] + O=C(CCCCCCC(=O)Nc1ccccc1)NO [Vorinostat] (partner 1 µM)
Procedure, shortened: (§1)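 Lung cancer cell lines in 1536-well plates got either a single drug or a fixed anchor-drug dose together with five library-drug doses (not always all listed) in √10 steps, by pin tool, on the day after seeding. Nuclei were counted after 5 days, and relative viability is the treated-to-vehicle ratio of nuclei counts. Values are medians of duplicate plates.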

Daporinad + Decitabine = compound: O=C(/C=C/c1cccnc1)NCCCCC1CCN(C(=O)c2ccccc2)CC1 [Daporinad] + Nc1ncn([C@H]2C[C@H](O)[C@@H](CO)O2)c(=O)n1 [Decitabine] (partner 2 µM)
Procedure, shortened: as §1

Daporinad + Dasatinib = compound: O=C(/C=C/c1cccnc1)NCCCCC1CCN(C(=O)c2ccccc2)CC1 [Daporinad] + Cc1nc(Nc2ncc(C(=O)Nc3c(C)cccc3Cl)s2)cc(N2CCN(CCO)CC2)n1 [Dasatinib] (partner 0.075 µM)
Procedure, shortened: as §1

R406 + Vorinostat = compound: COc1cc(Nc2ncc(F)c(Nc3ccc4c(n3)NC(=O)C(C)(C)O4)n2)cc(OC)c1OC [R406] + O=C(CCCCCCC(=O)Nc1ccccc1)NO [Vorinostat] (partner 1 µM)
Procedure, shortened: as §1

Cell Line	relative viability (Daporinad + Vorinostat; first compound 0.0005 µM)	relative viability (Daporinad + Vorinostat; first compound 0.001581 µM)	relative viability (Daporinad + Vorinostat; first compound 0.005 µM)	relative viability (Daporinad + Vorinostat; first compound 0.01581 µM)	relative viability (Daporinad + Decitabine; first compound 0.0005 µM)	relative viability (Daporinad + Decitabine; first compound 0.001581 µM)	relative viability (Daporinad + Decitabine; first compound 0.005 µM)	relative viability (Daporinad + Decitabine; first compound 0.01581 µM)	relative viability (Daporinad + Dasatinib; first compound 0.0005 µM)	relative viability (Daporinad + Dasatinib; first compound 0.001581 µM)	relative viability (Daporinad + Dasatinib; first compound 0.005 µM)	relative viability (Daporinad + Dasatinib; first compound 0.01581 µM)	relative viability (R406 + Vorinostat; first compound 0.08 µM)	relative viability (R406 + Vorinostat; first compound 0.253 µM)	relative viability (R406 + Vorinostat; first compound 0.8 µM)	relative viability (R406 + Vorinostat; first compound 2.53 µM)	relative viability (R406 + Vorinostat; first compound 8 µM)
LC-2-ad	0.677	0.769	0.693	0.63	0.769	0.882	0.743	0.838	0.622	0.539	0.68	0.765	0.677	0.748	0.744	0.336	0.201
LCLC-97TM1	0.547	0.686	0.867	1.1	0.221	0.243	0.209	0.233	0.77	0.89	0.865	0.844	0.732	0.908	1.38	0.569	0.468
LCLC-103H	0.747	0.835	0.864	0.999	0.793	0.692	0.744	0.774	0.546	0.411	0.465	0.502	0.729	0.764	0.834	0.779	0.566
LK-2	0.28	0.331	0.307	0.256	0.338	0.323	0.228	0.13	0.266	0.343	0.33	0.193	0.205	0.404	0.293	0.291	0.237
LOU-NH91	0.929	1.01	1.1	1.02	0.824	0.837	0.877	0.947	0.544	0.497	0.654	0.745	0.926	0.993	0.914	0.53	0.498
LU99A	0.499	0.594	0.545	0.571	0.898	0.908	0.943	0.645	0.539	0.492	0.708	0.547	0.519	0.484	0.553	0.361	0.312
LXF-289	0.692	0.937	0.794	0.96	0.4	0.426	0.397	0.332	0.178	0.292	0.214	0.289	0.632	0.772	0.787	0.654	0.616
NCI-H23	0.624	0.251	0.586	0.2	0.319	0.306	0.272	0.23	0.895	0.699	0.85	0.829	0.605	0.635	0.734	0.155	0.216
NCI-H322M	0.891	0.877	0.831	0.669	0.659	0.749	0.683	0.664	0.272	0.266	0.259	0.259	0.816	0.873	0.864	0.633	0.468
NCI-H358	0.688	0.75	0.801	0.558	0.215	0.256	0.233	0.194	0.135	0.174	0.175	0.158	0.766	0.726	0.722	0.314	0.273
NCI-H441	0.913	0.677	0.811	0.778	0.249	0.204	0.281	0.237	0.665	0.614	0.618	0.662	0.669	0.754	0.76	0.905	0.699
NCI-H460	0.743	0.719	0.687	0.643	0.493	0.466	0.481	0.453	0.575	0.639	0.489	0.505	0.673	1.04	0.917	0.645	0.742
NCI-H520	0.747	0.284	0.228	0.165	0.558	0.513	0.283	0.18	0.248	0.227	0.162	0.182	0.671	0.698	0.668	0.384	0.162
NCI-H522	0.995	1.13	0.946	0.544	0.626	0.689	0.634	0.628	1.01	0.924	0.88	0.843	0.937	1.04	1.01	0.838	0.812
NCI-H596	0.582	0.321	0.737	0.4	0.982	1	0.912	0.636	0.68	0.677	0.692	0.576	0.659	0.681	0.72	0.38	0.263
NCI-H647	0.527	0.483	0.534	0.49	0.37	0.425	0.448	0.366	0.146	0.27	0.282	0.196	0.436	0.645	0.611	0.66	0.113
NCI-H650	0.465	0.488	0.511	0.399	0.307	0.387	0.351	0.323	0.391	0.395	0.473	0.53	0.494	0.442	0.495	0.439	0.331
NCI-H1563									0.43	0.423	0.497	0.458					
NCI-H1648	0.439	0.333	0.424	0.41	0.463	0.528	0.511	0.44					0.457	0.427	0.562	0.468	0.643
NCI-H1792					0.545	0.65	0.683	0.406	0.617	0.815	0.477	0.921					
NCI-H2228	0.568	0.606	0.692	0.544					0.543	0.563	0.569	0.554	0.693	0.64	0.786	0.281	0.175
